Measurements published in US20240239794A1, “PKC-Theta Modulators” (Exscientia AI Limited, priority 2021, published 2024).
Counter-ions that a name gives are not always drawn. Like-named read-outs stand apart in the source and are kept apart here.

What was measured:
[1] = molecular target: Recombinant human PKC-theta (His-tagged 362-706) (Homo sapiens (Human), UniProt Q04759); assay: PKC-theta inhibition assay (HTRF KinEASE kit); format: biochemical; conditions: ATP 6.5 μM
Description: (§1) PKC-theta and PKC-delta biochemical activities were measured using the PKC-theta HTRF KinEASEkit kit, according to manufacturer's instructions (Cisbio, catalogue number 61ST1PEJ). Briefly, the kinase buffer component of the kit was supplemented with 10 mM MgCl2, 1 mM DTT and 0.1% Tween 20. For the PKC-theta assay, STK substrate and ATP were added to provide a final assay concentration of 525 nM and 6.5 μM, respectively. For the PKC-delta assay, STK substrate and ATP were added to provide a final assay concentration of 243 nM and 5.7 μM, respectively. The streptavidin_XL665 and STK antibody-cryptate detection reagents were mixed according to the manufacturer's instructions. Test compounds were diluted in DMSO in a series of 10 semi-log step doses; 10 nL of each compound dose were dispensed in 384 well plates. Recombinant human PKC-theta (His-tagged 362-706) or PKC-delta (His-tagged 345-676) was diluted into kinase buffer to provide a final assay concentration of 10 ng/ml and added to the test compound for 30 minutes on ice. The reaction was started by addition of the substrate and ATP and incubated at 25° C. for 30 minutes or 20 minutes for the PKC-theta and PKC-delta assays, respectively. The detection reagents were added, and the plate was incubated in the dark for 2 hours. Fluorescence was measured on an Envision 2103 plate reader with optical setup for […] in the HTRF mode. The ratio of acceptor and donor emission signals was calculated for each well. Percent inhibition values were calculated from the HTRF ratios at different doses and fitted to a 4-parameter logistic curve to determine IC50 values (see Table 1).

[2] = tested on: IL-2 secretion by human effector memory T cells (TEM); assay: Effector memory T cells IL-2 release assay; format: cell-based; conditions: T-cell, 24 h
Description: Test compound-mediated inhibition of NFκB signalling in T cells was assessed by quantification of the IL-2 secretion by human effector memory T cells (TEM) upon treatment and stimulation. Human TEM cells were isolated from buffy coats of healthy donors obtained from the French blood bank. First, peripheral blood mononuclear cells (PBMC) were purified from buffy coats diluted 1:1 with DPBS (Gibco, cat #14190-094) by Pancoll (PAN BIOTECH, cat #P04-60500) density gradient centrifugation at 400×g for 20 minutes. TEM cells were further enriched by negative immuno-magnetic cell sorting using a human CD4+ Effector Memory T Cell Isolation Kit (Miltenyi, cat #130-094-125) according to the manufacturer's instructions. Aliquots of 3×10E6 purified TEM cells were kept frozen in Cryo-SFM medium (PromoCell, cat #C-29912) in gas phase nitrogen until used. Cell purity was verified by flow cytometry analysis of 200 000 PFA-fixed cells previously labelled with monoclonal antibodies anti-CD4-PerCP-Cy5.5 (BD Pharmigen, cat #332772), anti-CD8-V500 (BD Biosciences, cat #561617), anti-CD14-Pacific Blue (Biolegend, cat #325616), anti-CD45 RA-FITC (Biolegend, cat #304106) and anti-CCR7-APC (in CD4+ Effector Memory T Cell Isolation Kit, Miltenyi, cat #130-094-125).
TEM cells were resuspended in complete RPMI medium composed of: RPMI 1640 (Gibco, cat #31870-025), 10% heat inactivated fetal bovine serum (Sigma, cat #F7524), 2 mM GlutaMAX (Gibco, cat #35050-038), 1 mM sodium pyruvate 100× (Gibco, cat #11360-039), 1% MEM non-essential amino acids solution (Gibco, cat #11140-035) and 100 U/mL penicillin, 100 µg/mL streptomycin (Sigma-Aldrich, cat #11074440001). 5,000 cells per well were plated onto flat clear bottom 384 well plates (Corning, cat #3770). 5,000 Dynabeads Human T-Activator CD3/CD28 (Gibco, cat #11132D) were added to each well for cell stimulation. Finally, 10 doses of test compound, originally prepared in DMSO by serial semi-log step dilution, were also added to cells in triplicate wells. Final DMSO concentration in wells was 0.1% in a total volume of 100 µL complete medium. Plates were incubated for 24 h at 37° C. in 5% CO2 atmosphere. After incubation, cell suspensions were centrifuged at 400×g and culture supernatants were recovered and stored at −80° C. Cell viability was assessed by flow cytometry after staining the cells with Fixable Viability Dye eFluor 780 (Invitrogen, cat #65-0865-14). IL-2 levels were determined in cell supernatants using an HTRF human IL-2 detection kit (Cisbio, cat #62HIL02PEH). IL-2 data at the different compound doses were fitted to a 4-parameter logistic curve to determine IC50 values, corresponding to the compound concentration leading to 50% reduction of the maximal IL-2 levels observed in each experiment. Viability data were analysed similarly to exclude cytotoxicity as a cause of IL-2 decrease (see Table 1).

[3] = molecular target: Recombinant human PKC-delta (His-tagged 345-676) (Homo sapiens (Human), UniProt Q05655); assay: PKC-delta inhibition assay (HTRF KinEASE kit), PKC-theta/PKC-delta selectivity; format: biochemical; conditions: ratio; for PKC-theta/PKC-delta selectivity: PKC-theta over PKC-delta, HTRF assays; for PKC-theta/PKC-delta selectivity (binned): binned A to G
Sequence of Recombinant human PKC-delta (His-tagged 345-676) (Q05655 345-676): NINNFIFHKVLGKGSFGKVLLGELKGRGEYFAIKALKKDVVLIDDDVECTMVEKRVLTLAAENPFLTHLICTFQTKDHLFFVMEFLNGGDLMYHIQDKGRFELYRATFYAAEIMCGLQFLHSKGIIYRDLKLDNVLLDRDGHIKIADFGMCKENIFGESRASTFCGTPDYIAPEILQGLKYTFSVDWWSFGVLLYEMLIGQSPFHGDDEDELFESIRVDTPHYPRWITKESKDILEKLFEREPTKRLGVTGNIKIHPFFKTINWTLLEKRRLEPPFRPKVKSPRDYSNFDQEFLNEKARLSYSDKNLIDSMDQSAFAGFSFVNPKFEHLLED
Description: as §1

[4] = binned A to H, read-out: PKC-theta HTRF pIC50 (binned) (converted)
[5] = read-out: PKC-theta HTRF pIC50 (converted)
[6] = human CD4+ TEM cells, CD3/CD28 bead stimulation, binned A to G, read-out: PKC-theta IL2 pIC50 (binned) (converted)
[7] = human CD4+ TEM cells, CD3/CD28 bead stimulation, read-out: PKC-theta IL2 pIC50 (converted)

Sequence of Recombinant human PKC-theta (His-tagged 362-706) (Q04759 362-706): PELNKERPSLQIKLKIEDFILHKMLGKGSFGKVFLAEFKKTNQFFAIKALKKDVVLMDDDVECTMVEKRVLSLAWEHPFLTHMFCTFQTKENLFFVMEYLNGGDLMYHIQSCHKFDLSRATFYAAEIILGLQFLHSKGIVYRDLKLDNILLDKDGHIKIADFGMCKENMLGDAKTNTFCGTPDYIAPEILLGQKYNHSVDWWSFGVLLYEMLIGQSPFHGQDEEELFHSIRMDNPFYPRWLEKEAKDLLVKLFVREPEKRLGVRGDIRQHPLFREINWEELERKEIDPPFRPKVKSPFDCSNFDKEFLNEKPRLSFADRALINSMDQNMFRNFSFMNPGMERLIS

IC50 [1, 4] [µM]	IC50 [1, 5] [µM]	IC50 [2, 6] [µM]	IC50 [2, 7] [µM]	PKC-theta/PKC-delta selectivity [3]	PKC-theta/PKC-delta selectivity (binned) [3]	PKC-theta HTRF pIC50 [1]	SMILES	IC50 ([2]; Homo sapiens, read-out: PKC-theta IL2 pIC50 (binned) (converted)) [µM]	IC50 ([2]; Homo sapiens, read-out: PKC-theta IL2 pIC50 (converted)) [µM]
0.00316 to 0.01	–	0.1 to 0.316	0.126	22	C (C means a ratio of between 20 and 30)	8.1	CC1(C)C(=O)Nc2nccc(-c3nn([C@H]4CCNC4)c4cc(Cl)ccc34)c21 [Example 71]	–	–
≤ 0.001	0.000126	0.001 to 0.00316	0.00158	25	C (C means a ratio of between 20 and 30)	–	CN[C@]1(C)C(=O)Nc2nccc(-c3nn(C4(CC#N)CCC4)c4ccccc34)c21 (single isomer, unassigned) [Example 95]	–	–
0.01 to 0.0316	0.0251	0.316 to 1	0.631	42	B (B means a ratio of between 30 and 50)	–	CC[C@]1(C)C(=O)Nc2nccc(-c3nn([C@@H]4CCNC[C@@H]4F)c4cc(F)ccc34)c21 (single isomer, unassigned) [Example 101]	–	–
0.001 to 0.00316	0.00251	0.0316 to 0.1	0.0794	28	C (C means a ratio of between 20 and 30)	–	C[C@]1(O)C(=O)Nc2nccc(-c3nn(C4(CC#N)CCC4)c4cc(C(F)(F)F)ccc34)c21 (single isomer, unassigned) [Example 64]	–	–
≤ 0.001	–	0.00316 to 0.01	0.01	10	E (E means a ratio of between 5 and 10)	9.7	CC1(O)C(=O)Nc2nccc(-c3nn([C@@H]4CC[C@@H](N)[C@H](F)C4)c4ccccc34)c21 (stereo partly shown) [Example 39]	–	–
0.01 to 0.0316	0.0251	0.316 to 1	0.398	–	–	–	C[C@@]1(O)C(=O)Nc2nccc(-c3nn(C4CCNCC4)c4cc(C(F)(F)F)ccc34)c21 (single isomer, unassigned) [Example 42]	–	–
0.00316 to 0.01	0.00631	–	–	46	B (B means a ratio of between 30 and 50)	–	CC[C@]1(C)C(=O)Nc2nccc(-c3nn([C@H]4CCNC[C@H]4F)c4cc(F)ccc34)c21 (single isomer, unassigned) [Example 102]	–	–

Continued, molecule first:

SMILES	IC50 [1, 4] [µM]	IC50 [1, 5] [µM]	IC50 [2, 6] [µM]	IC50 [2, 7] [µM]	PKC-theta/PKC-delta selectivity [3]	PKC-theta/PKC-delta selectivity (binned) [3]	PKC-theta HTRF pIC50 [1]	IC50 ([2]; Homo sapiens, read-out: PKC-theta IL2 pIC50 (binned) (converted)) [µM]	IC50 ([2]; Homo sapiens, read-out: PKC-theta IL2 pIC50 (converted)) [µM]
CC[C@@]1(O)C(=O)Nc2nccc(-c3nn([C@H]4CCNC[C@H]4F)c4ccccc34)c21 (single isomer, unassigned) [Example 82]	≤ 0.001	0.000794	0.0316 to 0.1	0.0501	12	D (D means a ratio of between 10 and 20)	–	–	–
CC1(O)C(=O)Nc2nccc(-c3cn([C@@H]4CCNC4)c4ccccc34)c21 (stereo partly shown) [Example 111]	0.01 to 0.0316	–	0.316 to 1	0.398	7	E (E means a ratio of between 5 and 10)	8.0	–	–
CCC1(C)C(=O)Nc2nccc(-c3nn([C@@H]4CCNC[C@@H]4F)c4ccccc34)c21 (stereo partly shown) [Example 52]	0.00316 to 0.01	–	0.0316 to 0.1	0.0398	8	E (E means a ratio of between 5 and 10)	8.4	–	–
COC1(C)C(=O)Nc2nccc(-c3nn([C@@H]4CCNC[C@@H]4F)c4ccccc34)c21 (stereo partly shown) [Example 61]	0.001 to 0.00316	–	0.0316 to 0.1	0.0501	16	D (D means a ratio of between 10 and 20)	8.7	–	–
CN1CCOCC1(C)Cn1nc(-c2ccnc3c2C(C)(C)C(=O)N3)c2ccccc21 (stereo not shown) [Example 63]	0.01 to 0.0316	–	> 1	1.26	17	D (D means a ratio of between 10 and 20)	7.5	–	–
COCc1cc(-c2ccnc3[nH]c(=O)[nH]c23)cn1C1CCNCC1 [Example 4]	> 1	–	> 1	3.98	2	F (F means a ratio of between 1 and 5)	6.0	–	–
CC1(C)C(=O)Nc2nccc(-c3cn(C4CCNC4)c4ccccc34)c21 (stereo not shown) [Example 10]	0.0316 to 0.1	–	0.316 to 1	0.631	12	D (D means a ratio of between 10 and 20)	7.4	–	–
CC1(C)C(=O)Nc2nccc(-c3cn(C4CCNCC4)c4ccccc34)c21 [Example 7, 3,3-dimethyl-4-[1-(4-piperidyl)indol-3-yl]-1H-pyrrolo[2,3-b]pyridin-2-one Dihydrochloride]	0.0316 to 0.1	–	–	–	6	E (E means a ratio of between 5 and 10)	7.4	0.316 to 1	0.501
CC1(C)C(=O)Nc2nccc(-c3nn(CC4CCNCC4)c4ccccc34)c21 [Example 30]	0.001 to 0.00316	–	0.0316 to 0.1	0.0501	14	D (D means a ratio of between 10 and 20)	8.9	–	–
CC[C@]1(O)C(=O)Nc2nccc(-c3nn([C@H]4CCNC[C@H]4F)c4ccccc34)c21 (single isomer, unassigned) [Example 84]	0.0316 to 0.1	0.0316	> 1	1.26	14	D (D means a ratio of between 10 and 20)	–	–	–
CO[C@]1(C)C(=O)Nc2nccc(-c3nn(CC4(F)CCNCC4)c4ccccc34)c21 (single isomer, unassigned) [Example 75]	0.001 to 0.00316	0.002	0.0316 to 0.1	0.0501	19	D (D means a ratio of between 10 and 20)	–	–	–
CC1(O)C(=O)Nc2nccc(-c3cn([C@@H]4CCNC4)c4ccccc34)c21 (stereo partly shown) [Example 17]	–	–	–	–	7	E (E means a ratio of between 5 and 10)	–	–	–
